This is an account of results in patent publication US20100081679A1, “DIAMINOPYRIMIDINES AS FUNGICIDES” (Bayer CropScience AG, priority 2007, published 2010).

A short description of this series: logP determination via retention times, calibrated with unbranched alkan-2-ones. Type of series: physicochemical.
Setting [1] is: method *: HPLC reversed-phase C 18, temperature 40° C., mobile phase 0.1% aqueous formic acid and acetonitrile, linear gradient 10% to 95% acetonitrile.
[2] abbreviates: method *: HPLC reversed-phase C18, 40° C., 0.1% aqueous formic acid and acetonitrile, linear gradient 10% to 95% acetonitrile.
Where [3] appears, read: method **: HPLC reversed-phase C 18, 43° C., 0.1% aqueous phosphoric acid and acetonitrile, linear gradient 10% to 95% acetonitrile.
[4] abbreviates: HPLC on reversed-phase C18, method *: 40° C., 0.1% aqueous formic acid and acetonitrile, linear gradient 10% to 95% acetonitrile.
The mark [5] stands for this setting: HPLC on reversed-phase C18, method *: 40° C., mobile phase 0.1% aqueous formic acid and acetonitrile, linear gradient 10% to 95% acetonitrile.
Where [6] appears, read: HPLC on reversed-phase C18 column (EEC Directive 79/831 Annex V.A8), method *: 40° C., 0.1% aqueous formic acid and acetonitrile, linear gradient 10% to 95% acetonitrile.
Where [7] appears, read: HPLC reversed-phase C 18, EEC Directive 79/831 Annex V.A8, method *: 40° C., 0.1% aqueous formic acid and acetonitrile, linear gradient 10% to 95% acetonitrile.
The mark [8] stands for this setting: HPLC on reversed-phase C 18, EEC Directive 79/831 Annex V.A8, method *: 40° C., 0.1% aqueous formic acid and acetonitrile, linear gradient 10% to 95% acetonitrile.

Marks after values point to notes of the source that are not given here.

For the compound `Fc1cnc(Nc2cccc(OC(F)(F)F)c2)nc1NC1CC1` [compound 576], the logP under setting [1] is recorded as 2.33*. Regarding `CN(C)S(=O)(=O)c1ccc(Nc2ncc(Br)c(NCC3CC3)n2)cc1` [compound 449], under setting [2], the logP is 2.51*. On to `C=CCNS(=O)(=O)c1ccc(Nc2ncc(Cl)c(NC3CC3)n2)cc1` [compound 31], for which the logP under setting [3] is on record as 2.09**. Regarding `CSc1ccc(Nc2ncc(Cl)c(NC3CC3)n2)cc1N` [compound 664], the logP under setting [4] is 1.69*. For `CNS(=O)(=O)c1ccc(Nc2ncc(Cl)c(NC3CC3)n2)cc1` [compound 21], the logP under setting [3] is reported as 1.71**.

Consider `COc1ccc(Nc2ncc(Br)c(NC3CC3)n2)cc1OC` [compound 742], for which the logP under setting [4] is recorded as 1.53*. Consider `CS(=O)(=O)c1ccc(Nc2ncc(Br)c(NC3CC3)n2)cc1` [compound 345], for which the logP under setting [5] is 1.9*. As to `O=C1CCCN1c1ccc(Nc2ncc(F)c(NC3CC3)n2)cc1` [compound 593], the logP under setting [1] was 1.35*. As for `CC(C)Sc1cccc(Nc2ncc(Cl)c(NC3CC3)n2)c1` [compound 264], the logP under setting [6] is 3.18*. As to `FC(F)(F)Nc1cccc(Nc2ncc(Cl)c(NC3CC3)n2)c1` [compound 184], the logP under setting [6] is 3.55*. For `CC(=O)c1cccc(Nc2ncc(Br)c(NC3CC3)n2)c1` [compound 358], the logP under setting [5] is reported as 1.85*.

Consider `Fc1ccc(Nc2ncc(Cl)c(NC3CC3)n2)cc1F` [compound 321], for which the logP under setting [5] is 2.59*. Take `O=C(c1cccc(Nc2ncc(Cl)c(NC3CC3)n2)c1)N1CCCC1` [compound 848]: the logP under setting [7] is 1.57*. For `NS(=O)(=O)c1cc(Nc2ncc(Cl)c(NCC3CC3)n2)cc(C(F)(F)F)c1` [Example 18], the logP under setting [3] is 2.63**. Regarding `O=S(=O)(c1cccc(Nc2ncc(Cl)c(NC3CC3)n2)c1)N1CCCCC1` [compound 246], under setting [6], the logP is listed as 2.8*. As to `CC(C)(C)C(=O)Cc1ccc(Nc2ncc(Br)c(NC3CC3)n2)cc1` [compound 355], the logP under setting [5] is given as 2.39*. On to `O=C(Nc1ccc(Nc2ncc(Cl)c(NCC3CC3)n2)cc1)C(F)(F)F` [compound 672], for which the logP under setting [4] is 2.02*. Turning to `CNC(=O)c1cccc(Nc2ncc(F)c(NC3CC3)n2)c1` [compound 585], the logP under setting [1] is reported as 1.05*. `FC(F)(F)c1cnc(Nc2cccc(N3CCCC3)c2)nc1NC1CC1` [compound 564]: the logP under setting [8] was 3.55*. In the case of `CC(C)(C)c1cccc(Nc2ncc(Cl)c(NC3CC3)n2)c1` [compound 778], under setting [7], the logP is listed as 2.9*. Take `O=C(O)Cc1cccc(Nc2ncc(Cl)c(NC3CC3)n2)c1` [compound 768]: under setting [4], the logP is listed as 1.23*. For `CC(=O)Nc1ccc(Nc2ncc(Br)c(NCC3CC3)n2)cn1` [compound 481], the logP under setting [8] is given as 1.47*. Consider `Clc1cnc(Nc2ccc(OC3CCCC3)cc2)nc1NC1CC1` [compound 299], for which, under setting [5], the logP is 2.48*. Take `COc1ccc(Nc2ncc(Cl)c(NCC3CC3)n2)cc1OC` [compound 686]: the logP under setting [4] is listed as 1.63*.

Turning to `CN(C)C(=O)c1cccc(Nc2ncc(Cl)c(NC3CC3)n2)c1` [compound 960], under setting [4], the logP is 1.33*. Regarding `CNS(=O)(=O)Cc1ccc(Nc2ncc(Cl)c(NC3CC3)n2)cc1` [Example 48], the logP under setting [3] is 1.37**. Regarding `CN(C)S(=O)(=O)Oc1ccc(Nc2ncc(Cl)c(NC3CC3)n2)cc1` [Example 102], the logP under setting [4] was 2.08*. `CC(=O)c1ccc(Nc2ncc(Cl)c(NCC3CC3)n2)cc1` [compound 678]: the logP under setting [4] is 2.13*.

With `COCc1cc(COC)cc(Nc2ncc(Cl)c(NC3CC3)n2)c1` [compound 1012], the logP (method *: HPLC, reversed-phase C 18, 40° C., mobile phase 0.1% aqueous formic acid and acetonitrile, linear gradient from 10% to 95% acetonitrile) is 1.76*. Consider `CN(C=O)c1ccc(Nc2ncc(Cl)c(NCC3CC3)n2)cc1` [compound 545], for which the logP under setting [8] was 1.56*. With `CC(=O)NS(=O)(=O)c1ccc(Nc2ncc(Cl)c(NC3CC3)n2)cc1` [compound 1021], the logP (method **: HPLC, reversed-phase C 18, 43° C., mobile phase 0.1% aqueous phosphoric acid and acetonitrile, linear gradient from 10% to 95% acetonitrile) was 1.54**. With `FC(F)C(F)(F)Oc1ccc(Nc2ncc(Br)c(NCC3CC3)n2)cc1` [compound 462], under setting [2], the logP was 2.8*.
